Literature values in patent US20230175054A1, “LASH METHODS FOR SINGLE MOLECULE SEQUENCING & TARGET NUCLEIC ACID DETECTION” (SARMAL, INC., priority 2020, published 2023).

Columns and labels:
[1] = target: T1, Renilla Luciferase (Renilla reniformis, UniProt P27652); conditions: for λem (nm): luminescence emission with Renilla Luciferase; for Initial Intensity (%) / Total Light (%): with Renilla Luciferase
T1 sequence (P27652 1-311): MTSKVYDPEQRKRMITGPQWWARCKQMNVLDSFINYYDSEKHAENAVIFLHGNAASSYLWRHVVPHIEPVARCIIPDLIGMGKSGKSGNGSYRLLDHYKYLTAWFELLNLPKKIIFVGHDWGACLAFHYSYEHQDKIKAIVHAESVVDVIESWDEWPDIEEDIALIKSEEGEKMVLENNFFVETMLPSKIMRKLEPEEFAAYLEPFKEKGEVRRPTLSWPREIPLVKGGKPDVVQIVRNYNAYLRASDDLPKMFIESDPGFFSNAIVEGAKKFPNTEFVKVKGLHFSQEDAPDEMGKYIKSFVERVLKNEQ

[2] = target: T2, Apoaequorin (Aequorea victoria, UniProt P02592); conditions: for λem (nm): luminescence emission with Apoaequorin; for Half-rise time / Relative intensity / Relative luminescence capacity: with Apoaequorin
T2 sequence (P02592 8-196): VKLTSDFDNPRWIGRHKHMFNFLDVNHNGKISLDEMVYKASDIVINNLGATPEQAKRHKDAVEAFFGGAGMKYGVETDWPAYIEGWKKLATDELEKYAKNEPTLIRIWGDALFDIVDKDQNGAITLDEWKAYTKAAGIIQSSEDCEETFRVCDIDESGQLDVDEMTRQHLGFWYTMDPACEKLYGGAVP

Row | Compound | λem (nm) [1] | Initial Intensity (%) [1] | Total Light (%) [1] | λem (nm) [2] | Half-rise time [2] | Relative intensity [2] | Relative luminescence capacity [2]
1 | Oc1ccc(Cc2nc3c(CC4CCCC4)nc(-c4ccc(O)cc4)cn3c2O)cc1 [Cp, Coelenterazine cp] | 470 nm | 135% | 23% | 442 nm | 0.15 to 0.3 s | 15 | 0.95
2 | Oc1ccc(Cc2nc3c(Cc4ccccc4)nc(-c4ccc(O)cc4)cn3c2O)cc1 [Native, Coelenterazine] | – | – | – | 465 nm | 0.4 to 0.8 s | 1.00 | 1.0
3 | Oc1ccc(-c2cn3c(O)c(Cc4ccc(F)cc4)nc3c(CC3CCCC3)n2)cc1 [fcp, Coelenterazine fcp] | – | – | – | 452 nm | 0.4 to 0.8 s | 135 | 0.57
4 | Oc1ccc(-c2cn3c(O)c(Cc4ccccc4)nc3c(CC3CCCC3)n2)cc1 [hcp, Coelenterazine hcp] | – | – | – | 444 nm | – | 190 | 0.67
5 | O=c1c(Cc2ccc(I)cc2)nc2c(Cc3ccccc3)[nH]c(-c3ccc(O)cc3)cn1-2 [i, Coelenterazine i] | – | – | – | 476 nm | 8 s | 0.03 | 0.70
6 | Coelenterazine f | 473 nm | 45% | 28% | 473 nm | 0.4 to 0.8 s | 18 | 0.80
7 | Coelenterazine h | – | – | – | 475 nm | 0.4 to 0.8 s | 10 | 0.82
8 | Coelenterazine ip | – | – | – | 441 nm | 1 s | 47 | 0.54
9 | Coelenterazine n | – | – | – | 467 nm | 5 s | 0.01 | 0.26
